How the values were obtained:
Experiment in all cases: relative viability (nuclei count vs DMSO), 5 days (fraction); higher = more cells survive
[1] = compound: C[C@@H](N)c1ccc(C(=O)Nc2ccnc3[nH]ccc23)cc1 + O=C(c1cc(Cc2n[nH]c(=O)c3ccccc23)ccc1F)N1CCN(C(=O)C2CC2)CC1 [Olaparib] (partner 8 µM)
Summary of the method: (§1)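 Cells from lung cancer lines were seeded into 1536-well plates and, one day later, dosed by pin tool. Treatments were either a single drug or a fixed dose of an anchor drug with five library-drug doses (not always all listed) in √10 steps. After 5 days, nuclei were stained in a one-step fixation (final 0.05% Triton X-100, 1% formaldehyde, 1 ug/ml Hoechst) and counted on 4× images, and relative viability is the treated-to-vehicle nuclei ratio, as the median of duplicate plates.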

[2] = compound: C[C@@H](N)c1ccc(C(=O)Nc2ccnc3[nH]ccc23)cc1 + N=C(N)NC(=N)NCCc1ccccc1 [Phenformin] (partner 250 µM)
Summary of the method: as §1

Tanzisertib + Phenformin = compound: O[C@H]1CC[C@H](Nc2ncc3nc(Nc4c(F)cc(F)cc4F)n([C@H]4CCOC4)c3n2)CC1 [Tanzisertib] + N=C(N)NC(=N)NCCc1ccccc1 [Phenformin] (partner 250 µM)
Summary of the method: as §1

[3] = compound: C1CNCCC1C2=CC(=NN2)C3=CC=NC=C3 + CC(=O)c1c(C)c2cnc(Nc3ccc(N4CCNCC4)cn3)nc2n(C2CCCC2)c1=O [Palbociclib] (partner 0.5 µM)
Summary of the method: as §1

| Cell Line | relative viability ([1]; first compound 0.04 µM) | relative viability ([1]; first compound 0.1265 µM) | relative viability ([1]; first compound 0.4 µM) | relative viability ([1]; first compound 1.265 µM) | relative viability ([1]; first compound 4 µM) | relative viability ([2]; first compound 0.04 µM) | relative viability ([2]; first compound 0.1265 µM) | relative viability ([2]; first compound 0.4 µM) | relative viability ([2]; first compound 4 µM) | relative viability (Tanzisertib + Phenformin; first compound 0.08 µM) | relative viability (Tanzisertib + Phenformin; first compound 0.253 µM) | relative viability (Tanzisertib + Phenformin; first compound 0.8 µM) | relative viability (Tanzisertib + Phenformin; first compound 2.53 µM) | relative viability (Tanzisertib + Phenformin; first compound 8 µM) | relative viability ([3]; first compound 0.08 µM) | relative viability ([3]; first compound 0.8 µM) | relative viability ([3]; first compound 2.53 µM) | relative viability ([3]; first compound 8 µM) | relative viability ([2]; first compound 1.265 µM) |
| --- | --- | --- | --- | --- | --- | --- | --- | --- | --- | --- | --- | --- | --- | --- | --- | --- | --- | --- | --- |
| IA-LM | 0.824 | 0.996 | 0.914 | 1.11 | 0.914 |  |  |  |  |  |  |  |  |  |  |  |  |  |  |
| NCI-H322M | 0.862 | 0.944 | 0.901 | 1.01 | 0.979 | 0.874 | 0.886 | 0.871 | 0.72 | 0.788 | 0.728 | 0.832 | 0.81 | 0.721 | 0.489 | 0.425 | 0.468 | 0.508 |  |
| NCI-H1792 | 0.419 | 0.523 | 0.564 | 0.383 | 0.319 | 0.286 |  | 0.15 | 0.357 | 0.233 | 0.467 | 0.544 | 0.38 | 0.475 | 0.636 | 0.702 | 0.718 | 0.588 | 0.278 |
| LXF-289 | 1.12 | 1.05 | 1.16 | 1.23 | 0.901 | 0.509 | 0.524 | 0.525 | 0.496 | 0.55 | 0.532 | 0.519 | 0.545 | 0.535 | 0.599 | 0.644 | 0.646 | 0.58 | 0.569 |
| HCC-827 |  | 0.764 | 0.834 | 0.739 | 0.542 | 0.424 | 0.462 | 0.423 | 0.406 | 0.409 | 0.417 | 0.398 | 0.382 | 0.242 | 0.498 | 0.437 | 0.534 | 0.499 | 0.394 |
| EMC-BAC-2 |  | 0.516 | 0.477 | 0.505 | 0.425 | 0.41 | 0.553 | 0.469 | 0.409 | 0.51 | 0.507 | 0.528 | 0.51 | 0.502 | 0.435 | 0.513 | 0.531 | 0.523 | 0.404 |
| NCI-H520 | 0.359 | 0.332 | 0.29 | 0.373 | 0.318 | 0.635 | 0.603 | 0.702 | 0.656 | 0.734 | 0.662 | 0.599 | 0.609 | 0.663 | 0.176 | 0.167 | 0.219 | 0.147 | 0.404 |
| NCI-H1755 | 0.91 | 0.963 | 0.873 | 0.839 | 0.743 | 0.504 | 0.687 | 0.657 | 0.426 | 0.692 | 0.612 | 0.595 | 0.649 | 0.632 | 0.437 | 0.442 | 0.462 | 0.365 | 0.525 |
| NCI-H1993 | 1.4 | 1.14 |  | 1.02 |  | 0.597 | 0.501 | 0.528 | 0.547 | 0.484 | 0.508 | 0.49 | 0.491 | 0.537 | 0.704 | 0.737 | 0.698 | 0.738 | 0.502 |
| NCI-H23 | 0.311 | 0.335 | 0.368 |  | 0.3 | 0.744 | 0.798 | 0.85 | 0.732 | 0.808 | 0.808 | 0.84 | 0.795 | 0.668 | 0.444 |  | 0.602 | 0.647 |  |
| SW 900 | 1.03 | 0.918 | 1.21 | 0.883 | 1.08 | 0.852 | 0.687 | 0.512 | 0.531 | 0.725 | 0.601 | 0.749 | 0.587 | 0.512 | 0.551 |  | 0.584 | 0.561 | 0.618 |
| NCI-H1437 | 0.649 | 0.678 | 0.636 | 0.632 | 0.645 | 0.335 | 0.346 | 0.35 | 0.336 | 0.287 | 0.314 | 0.303 | 0.276 | 0.283 | 0.356 | 0.335 | 0.352 | 0.368 | 0.324 |
| SK-MES-1 | 0.813 | 0.834 | 0.697 | 0.639 | 0.638 | 0.63 | 0.712 | 0.658 | 0.571 | 0.683 | 0.637 | 0.663 | 0.645 | 0.632 | 0.308 | 0.316 | 0.37 | 0.353 | 0.583 |
| NCI-H2405 |  | 0.863 | 0.741 | 0.587 | 0.337 | 0.176 | 0.449 | 0.369 | 0.218 | 0.454 | 0.393 | 0.426 | 0.385 | 0.345 | 0.502 | 0.519 | 0.586 | 0.507 | 0.264 |
| NCI-H2023 | 0.534 | 0.497 | 0.516 | 0.503 | 0.495 | 0.451 | 0.482 | 0.512 | 0.411 | 0.427 | 0.37 | 0.407 | 0.411 | 0.404 | 0.315 | 0.379 | 0.418 | 0.386 | 0.457 |
| NCI-H1299 | 0.91 | 0.987 | 0.933 | 0.878 | 0.767 |  |  |  |  |  |  |  |  |  |  |  |  |  |  |
| NCI-H1563 |  |  |  |  |  | 0.623 | 0.74 | 0.632 | 0.641 | 0.662 | 0.688 | 0.654 | 0.681 | 0.624 |  |  |  |  | 0.687 |
| NCI-H596 | 0.63 | 0.698 | 0.723 | 0.749 | 0.763 | 0.781 | 0.668 | 0.804 | 0.713 | 0.968 | 0.626 | 0.882 | 0.675 | 0.602 |  |  |  |  |  |
| Calu-6 | 0.602 | 0.592 | 0.547 | 0.533 | 0.45 |  |  |  |  |  |  |  |  |  |  |  |  |  |  |
| NCI-H1703 | 0.374 | 0.476 | 0.348 |  | 0.463 |  |  |  |  |  |  |  |  |  |  |  |  |  |  |
| EBC-1 | 0.847 | 0.713 | 0.678 | 0.683 | 0.583 |  |  |  |  |  |  |  |  |  |  |  |  |  |  |
| NCI-H1648 | 1.01 | 1.02 | 1.93 | 1.71 | 1.29 |  |  |  |  |  |  |  |  |  | 0.266 | 0.352 |  | 0.243 |  |
| A549 | 0.303 | 0.251 | 0.575 | 0.0626 | 0.465 | 0.0717 | 0.256 | 0.279 | 0.164 | 0.236 | 0.153 | 0.183 | 0.309 | 0.168 |  |  |  |  |  |

Source: the supplement of paper PMC10307832
